Results taken from patent US20260285850A1, “SUBSTITUTED OXAZOLIDINONES AND IMIDAZOLINONES AS HERBICIDES” (FMC CORPORATION, priority 2023, published 2026).

Experiments:
Assay type in all cases: in vivo
[1] = test system: blackgrass (Alopecurus myosuroides); test: Test A preemergence soil spray, visual injury rating 0-100; conditions: 10 days
How it was run: (§1)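 Compound in a non-phytotoxic, surfactant-containing solvent is applied either as a directed soil spray before seedlings emerge or onto emerged plants 2-10 cm tall; pots hold a loam-sand blend. Plants grow 10 days under greenhouse conditions and are rated by eye against untreated controls (0 no effect, 100 complete control).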

[2] = test system: ragweed (common ragweed, Ambrosia artemisiifolia); test: as above; conditions: 10 days
How it was run: as §1

[3] = test system: oat, wild (wild oat, Avena fatua); test: as above; conditions: 10 days
How it was run: as §1

corn (Zea mays) [4] = test: as above; conditions: 10 days
How it was run: as §1

[5] = test system: palmer (palmer amaranth, palmer pigweed, Amaranthus palmeri); test: as above; conditions: 10 days
How it was run: as §1

[6] = test system: green foxtail (Setaria viridis); test: as above; conditions: 10 days
How it was run: as §1

[7] = test system: ryegrass, Italian (italian ryegrass, Lolium multiflorum); test: as above; conditions: 10 days
How it was run: as §1

soybean (Glycine max) [8] = test: as above; conditions: 10 days
How it was run: as §1

[9] = test system: barnyardgrass (Echinochloa crus-galli); test: as above; conditions: 10 days
How it was run: as §1

kochia (Bassia scoparia) [10] = test: as above; conditions: 10 days
How it was run: as §1

[11] = test system: wheat (Triticum aestivum); test: as above; conditions: 10 days
How it was run: as §1

[12] = test system: sedge, umbrella (small-flower umbrella sedge, Cyperus difformis); test: Test B flooded paddy test, visual plant response rating 0-100; conditions: 250 g ai/ha, Flood, applied to paddy water, evaluated after 13 days
How it was run: (§2)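 Greenhouse, 13 d. Seedlings at 2-leaf stage, pots flooded to 3 cm, compound delivered into floodwater, water level held constant. Evaluated visually relative to controls.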

[13] = test system: ducksalad (Heteranthera limosa); test: as above; conditions: 250 g ai/ha, Flood, applied to paddy water, evaluated after 13 days
How it was run: as §2

rice (Oryza sativa) = test: as above; conditions: 250 g ai/ha, Flood, applied to paddy water, evaluated after 13 days
How it was run: as §2

[14] = test system: barnyardgrass (Echinochloa crusgalli); test: as above; conditions: 250 g ai/ha, Flood, applied to paddy water, evaluated after 13 days
How it was run: as §2

[15] = test system: blackgrass (Alopecurus myosuroides); test: Test A postemergence application, visual injury rating 0-100
How it was run: as §1

[16] = test system: ragweed (common ragweed, Ambrosia artemisiifolia); test: as above
How it was run: as §1

[17] = test system: oat, wild (wild oat, Avena fatua); test: as above
How it was run: as §1

corn (Zea mays) [18] = test: as above
How it was run: as §1

[19] = test system: palmer (palmer amaranth, palmer pigweed, Amaranthus palmeri); test: as above
How it was run: as §1

[20] = test system: green foxtail (Setaria viridis); test: as above
How it was run: as §1

[21] = test system: ryegrass, Italian (italian ryegrass, Lolium multiflorum); test: as above
How it was run: as §1

soybean (Glycine max) [22] = test: as above
How it was run: as §1

[23] = test system: barnyardgrass (Echinochloa crus-galli); test: as above
How it was run: as §1

[24] = test system: horseweed (Erigeron canadensis); test: as above
How it was run: as §1

kochia (Bassia scoparia) [25] = test: as above
How it was run: as §1

[26] = test system: wheat (Triticum aestivum); test: as above
How it was run: as §1

[27] = 62 g ai/ha, 0 = no effect, 100 = complete control
[28] = 62 g ai/ha, postemergence, 10 days, 0 = no effect, 100 = complete control
[29] = Postemergence, 16 g ai/ha, greenhouse 10 days, 0 no effect, 100 complete control

CC(C)OC(=O)C1=CCC(NC(=O)C2(C)CN(c3cc(Cl)cc(Cl)c3)C(=O)O2)C1 (centres unmarked) [Compound 106]
Blackgrass plant response rating ([1]; 16 g ai/ha, 0 to 100 scale): 0 | Blackgrass plant response rating (0-100) [1, 27]: 0 | Ragweed plant response rating ([2]; 16 g ai/ha, 0 to 100 scale): 0 | Ragweed plant response rating (0-100) [2, 27]: 0 | Oat, Wild plant response rating ([3]; 16 g ai/ha, 0 to 100 scale): 0 | Oat, Wild plant response rating (0-100) [3, 27]: 0 | Corn plant response rating (corn (Zea mays) [4]; 16 g ai/ha, 0 to 100 scale): 0 | Corn plant response rating (0-100) (corn (Zea mays) [4]; [27]): 0 | Pigweed, Palmer plant response rating ([5]; 16 g ai/ha, 0 to 100 scale): 0 | Pigweed, Palmer plant response rating (0-100) [5, 27]: 0 | Foxtail, Green plant response rating ([6]; 16 g ai/ha, 0 to 100 scale): 0 | Foxtail, Green plant response rating (0-100) [6, 27]: 0 | Ryegrass, Italian plant response rating ([7]; 16 g ai/ha, 0 to 100 scale): 0 | Ryegrass, Italian plant response rating (0-100) [7, 27]: 0 | Soybean plant response rating (soybean (Glycine max) [8]; 16 g ai/ha, 0 to 100 scale): 0 | Soybean plant response rating (0-100) (soybean (Glycine max) [8]; [27]): 0 | Barnyardgrass plant response rating ([9]; 16 g ai/ha, 0 to 100 scale): 0 | Barnyardgrass plant response rating (0-100) [9, 27]: 0 | Kochia plant response rating (kochia (Bassia scoparia) [10]; 16 g ai/ha, 0 to 100 scale): 0 | Kochia plant response rating (0-100) (kochia (Bassia scoparia) [10]; [27]): 0 | Wheat plant response rating ([11]; 16 g ai/ha, 0 to 100 scale): 0 | Wheat plant response rating (0-100) [11, 27]: 0 | Plant response rating, Sedge, Umbrella (0 to 100 scale, 0 is no effect and 100 is complete control) [12]: 98 | Plant response rating, Ducksalad (0 to 100 scale, 0 is no effect and 100 is complete control) [13]: 85 | Plant response rating, Rice (0 to 100 scale, 0 is no effect and 100 is complete control) (rice (Oryza sativa)): 10 | Plant response rating, Barnyardgrass (0 to 100 scale, 0 is no effect and 100 is complete control) [14]: 65 | Blackgrass plant response rating (0-100) [15, 28]: 0 | Blackgrass plant response rating (0 to 100 scale) [15, 29]: 0 | Ragweed plant response rating (0-100) [16, 28]: 0 | Ragweed plant response rating (0 to 100 scale) [16, 29]: 0 | Oat, Wild plant response rating (0-100) [17, 28]: 0 | Oat, Wild plant response rating (0 to 100 scale) [17, 29]: 0 | Corn plant response rating (0-100) (corn (Zea mays) [18]; [28]): 0 | Corn plant response rating (0 to 100 scale) (corn (Zea mays) [18]; [29]): 0 | Pigweed, Palmer plant response rating (0-100) [19, 28]: 0 | Pigweed, Palmer plant response rating (0 to 100 scale) [19, 29]: 0 | Foxtail, Green plant response rating (0-100) [20, 28]: 0 | Foxtail, Green plant response rating (0 to 100 scale) [20, 29]: 0 | Ryegrass, Italian plant response rating (0-100) [21, 28]: 0 | Ryegrass, Italian plant response rating (0 to 100 scale) [21, 29]: 0 | Soybean plant response rating (0-100) (soybean (Glycine max) [22]; [28]): 0 | Soybean plant response rating (0 to 100 scale) (soybean (Glycine max) [22]; [29]): 0 | Barnyardgrass plant response rating (0-100) [23, 28]: 0 | Barnyardgrass plant response rating (0 to 100 scale) [23, 29]: 0 | Horseweed plant response rating (0-100) [24, 28]: 0 | Horseweed plant response rating (0 to 100 scale) [24, 29]: 0 | Kochia plant response rating (0-100) (kochia (Bassia scoparia) [25]; [28]): 0 | Kochia plant response rating (0 to 100 scale) (kochia (Bassia scoparia) [25]; [29]): 0 | Wheat plant response rating (0-100) [26, 28]: 0 | Wheat plant response rating (0 to 100 scale) [26, 29]: 0
